Experimental data published in patent publication US12226405B2, “Compounds and compositions for inhibiting the activity of HIF2-alpha and their methods of use” (Novartis AG, priority 2020, dated 2025).

Columns and labels:
[1] = 25° C.; for hygroscopicity assignment (DVS): 0 to 95% RH
Method: Dynamic vapor sorption was performed using a SMS Advantage system. Approximately 10 mg of sample was subjected to varying humidities between 0% RH and 95% RH at 25° C. Evaluation was performed using the system software.

[2] = test system: HIF2α-regulated expression of the endogenous target gene hEGLN3 in 786-O cells; test: Cellular iScript assay for HIF2α (quantitative RT-PCR of hEGLN3); format: cell-based, human; conditions: Homo sapiens, 786-0, 48 hours incubation
Summary of the method: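 786-O cells were exposed to eleven 2-fold compound dilutions for 48 h at 37° C. Lysates underwent one-step TaqMan qRT-PCR for hEGLN3 with beta-actin as reference; 2^(−ΔΔCt) versus DMSO, as % of control, was fit with a four-parameter model to give IC50.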

[3] = test system: HIF2α-dependent transcription in 786-O-HRE-Luc cells; test: In vitro cellular hypoxia response element (HRE) reporter gene assay (RGA) for HIF2α; format: cell-based, human; conditions: Homo sapiens, 24 hours incubation
Summary of the method: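 Renal carcinoma cells carrying a 4×HRE-driven PEST-destabilised firefly luciferase were treated a day after seeding with eleven 2-fold compound dilutions (0.1% DMSO) for 24 h at 37° C. BrightGlo luminescence, background-subtracted and expressed as % of DMSO control, was fitted four-parametrically for IC50.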

[4] = target: T1, HIF2α PAS-B domain (236-350, biotinylated on the N-terminus) (Homo sapiens (Human), UniProt Q99814); test: biochemical
Method: (§1) The assay buffer contained 50 mM Tris-HCl pH7 (Sigma), 20 mM NaCl (Fluka), 0.02% BSA (Sigma), 0.005% Triton X-100 (Pierce) and 1 mM DTT (Fluka). After a 30 min incubation period, 5 μL Streptavidin PVT SPA Beads (Perkin Elmer) at 1.2 mg/mL, diluted in the buffer, were added.

[5] = target: T1, HIF2α PAS-B domain (236-350, biotinylated on the N-terminus); test: In vitro SPA with the PAS-B domain of HIF2α (competition binding with radio-ligand); conditions: read-out: affinity of the non-labeled ligand, IC50
Method: as §1

T1 sequence (Q99814 236-350): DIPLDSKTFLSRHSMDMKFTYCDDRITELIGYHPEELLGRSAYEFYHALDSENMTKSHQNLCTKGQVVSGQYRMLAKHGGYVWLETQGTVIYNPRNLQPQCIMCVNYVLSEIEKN

| Compound | hygroscopicity assignment (DVS) [1] | mass difference between 0 and 95% RH (DVS) [1] | IC50 [2] [nM] | IC50 [3] [nM] | IC50 [4] [nM] | IC50 [5] [nM] |
| --- | --- | --- | --- | --- | --- | --- |
| FC(F)OC1=CC(C(F)(F)F)=CN2C[C@@]3(CCC(F)(F)c4c3ccnc4Cl)N=C12.O=C(O)/C=C/C(=O)O | non-hygroscopic | less than 0.1 weight % |  |  |  |  |
| FC(F)OC1=CC(C(F)(F)F)=CN2C[C@@]3(CCC(F)(F)c4c3ccnc4Cl)N=C12 | non-hygroscopic | less than 0.05 weight % |  |  |  |  |
| FC1=CC(C(F)(F)F)=CN2CC3(CCCc4c3ccc(F)c4F)N=C12 (racemic) [Example 78, rac-5′,6′,8-trifluoro-6-(trifluoromethyl)-3′,4′-dihydro-2′H,3H-spiro[imidazo[1,2-a]pyridine-2,1′-naphthalene]] |  |  | 161 | 4230 | 8 |  |
| FC(F)OC1=CC(C(F)(F)F)=CN2CC3(CCCc4c(Br)cccc43)N=C12 (racemic) [Example 81, rac-5′-bromo-8-(difluoromethoxy)-6-(trifluoromethyl)-3′,4′-dihydro-2′H,3H-spiro[imidazo[1,2-a]pyridine-2,1′-naphthalene]] |  |  | 57 | 143 | ≤ 10 |  |
| Fc1cccc2c1OC[C@H](F)[C@@]21CN2C=C(C(F)(F)F)C=C(OC(F)F)C2=N1 (racemic) [Example 101, rac-8′-(difluoromethoxy)-3,8-difluoro-6′-(trifluoromethyl)-3′H-spiro[chromane-4,2′-imidazo[1,2-a]pyridine]] |  |  | 149 |  | 15 |  |
| Fc1c(C(F)(F)F)ccc2c1COCC21CN2C=C(C(F)(F)F)C=C(OC(F)F)C2=N1 (racemic) [Example 108, rac-8-(difluoromethoxy)-8′-fluoro-6,7′-bis(trifluoromethyl)-3H-spiro[imidazo[1,2-a]pyridine-2,4′-isochroman]] |  |  | 156 | 692 | 29 |  |
| FC(F)OC1=CC(C(F)(F)F)=CN2CC3(CCCOc4c(Cl)cccc43)N=C12 (racemic) [Example 118, rac-9-chloro-8′-(difluoromethoxy)-6′-(trifluoromethyl)-3,4-dihydro-2H,3′H-spiro[benzo[b]oxepine-5,2′-imidazo[1,2-a]pyridine]] |  |  | 161 | 1030 | 16 |  |
| Fc1c(Br)ccc2c1CC[C@@]21CN2C=C(C(F)(F)F)C=C(OC(F)F)C2=N1 [Example 1, (S)-5′-bromo-8-(difluoromethoxy)-4′-fluoro-6-(trifluoromethyl)-2′,3′-dihydro-3H-spiro[imidazo[1,2-a]pyridine-2,1′-indene]] |  |  | 65 | 232 | ≤ 3 |  |
| O[C@H]1c2c(ccc(Br)c2F)[C@]2(CN3C=C(C(F)(F)F)C=C(OC(F)F)C3=N2)CC1(F)F [Example 18, (1′S,4'S)-6′-bromo-8-(difluoromethoxy)-3′,3′,5′-trifluoro-6-(trifluoromethyl)-3′,4′-dihydro-2′H,3H-spiro[imidazo[1,2-a]pyridine-2,1′-naphthalen]-4′-ol] |  |  | 37 | 92 | 6 |  |
| O[C@@H]1c2c(ccc(Br)c2F)[C@]2(CN3C=C(C(F)(F)F)C=C(OC(F)F)C3=N2)CC1(F)F [Example 19, (1′S,4′R)-6′-bromo-8-(difluoromethoxy)-3′,3′,5′-trifluoro-6-(trifluoromethyl)-3′,4′-dihydro-2′H,3H-spiro[imidazo[1,2-a]pyridine-2,1′-naphthalen]-4′-ol] |  |  | 144 | 446 | 36 |  |
| O=C1c2c(F)cccc2[C@@]2(C[C@H]1F)CN1C=C(C(F)(F)F)C=C(OC(F)F)C1=N2 [Example 20, (1′S,3′R)-8-(difluoromethoxy)-3′,5′-difluoro-6-(trifluoromethyl)-2′H,3H-spiro[imidazo[1,2-a]pyridine-2,1′-naphthalen]-4′(3′H)-one] |  |  | 155 | 892 | 15 |  |
| N#CC1=CN2C[C@@]3(CSCc4c(F)cccc43)N=C2C(OC(F)F)=C1 [Example 68, (S)-8-(difluoromethoxy)-8′-fluoro-3H-spiro[imidazo[1,2-a]pyridine-2,4′-isothiochroman]-6-carbonitrile] |  |  | 111 | 670 | 11 |  |
| O=[N+]([O-])c1c(Nc2cc(F)cc(Cl)c2)ccc2nonc12 [N-(3-chloro-5-fluorophenyl-4-t)-4-nitrobenzo[c][1,2,5]oxadiazol-7-t-5-amine, reference compound] |  |  |  |  |  | 82 ± 18 |
